Values quoted from earlier work in patent US5349105A, “Alkyl, alkoxy and thioalkoxy substituted diphenyl acetylenes having retinoid like activity” (Allergan, Inc., priority 1993, dated 1994).

Tested on: ornithine decarboxylase (ODC)
Settings: literature background

| SMILES | induction of ODC activity (in words) (TPA as inducer) | inhibition of induction of ODC activity by TPA (in words) (retinoic acid) |
| --- | --- | --- |
| CCCCCCCCCCCCCC(=O)O[C@@H]1[C@@H](C)[C@@]2(O)[C@@H](C=C(CO)C[C@]3(O)C(=O)C(C)=C[C@@H]23)[C@@H]2C(C)(C)[C@]12OC(C)=O [12-0-tetradecanoyl-phorbol-13-acetate] | induces ODC activity | – |
| CC1=C(/C=C/C(C)=C/C=C/C(C)=C/C(=O)O)C(C)(C)CCC1 [Retinoic acid] | – | inhibits this induction of ODC activity by TPA |
